Experimental data taken from US8614068B2, “Process for producing hepcidin” (Hellenic Pasteur Institute, priority 2007, dated 2013).
“Also recorded” adds a separate entry of the source.

Assays:
[1] = target: T1, ferroportin (FPN1) (Mus musculus, UniProt Q9JHI9); assay: Cross-linking and pull-down assay; format: binding, murine; conditions: RAW 264.7, 10 nM, cross-linking with DSS, Ni2-NTA pull-down, anti-ferroportin Western blot
T1 construct: endogenous in cells; host or cells: RAW 264.7 murine macrophages
T1 sequence (Q9JHI9 1-570): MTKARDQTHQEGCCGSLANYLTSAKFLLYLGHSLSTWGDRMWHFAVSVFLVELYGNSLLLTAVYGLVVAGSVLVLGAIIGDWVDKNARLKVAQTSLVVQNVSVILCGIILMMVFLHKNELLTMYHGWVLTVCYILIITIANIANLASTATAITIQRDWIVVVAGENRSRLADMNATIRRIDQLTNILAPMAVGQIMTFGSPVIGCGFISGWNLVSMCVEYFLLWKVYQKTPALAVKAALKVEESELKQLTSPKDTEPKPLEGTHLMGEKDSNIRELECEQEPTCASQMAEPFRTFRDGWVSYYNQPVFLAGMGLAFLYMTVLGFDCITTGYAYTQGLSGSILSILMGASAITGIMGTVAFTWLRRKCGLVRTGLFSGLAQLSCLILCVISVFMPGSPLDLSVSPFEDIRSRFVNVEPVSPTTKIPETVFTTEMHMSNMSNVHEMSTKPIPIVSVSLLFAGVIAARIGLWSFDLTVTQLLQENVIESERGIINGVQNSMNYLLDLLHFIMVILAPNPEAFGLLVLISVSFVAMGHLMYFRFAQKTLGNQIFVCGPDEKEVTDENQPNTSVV
Procedure: (§1) A, RAW 264.7 macrophages were treated with 11 μM and 10 μM of synthetic hepcidin-25 (having the sequence of SEQ ID NO. 2) and Hep-25His (having the sequence of SEQ ID NO. 6) for 4 h at 37° C. or with PBS as negative control. Cell lysates were subjected to 8% SDS PAGE and Western Blot with antibodies against TfR1, Ferroportin and actin as loading control. B, The signal density of ferroportin, TfR1 and actin protein bands from two independent experiments were quantified by densitometry and their intensity relative to actin was calculated. Data are expressed as mean of ratios of TfR1 or to actin levels ±S.D. for each experimental condition. *p<0.01. […] Hep25-His, negative peptide and PBS was incubated with Raw 264.7 macrophages, followed by cross-linking with DSS. Cell lysates were incubated with Ni2-NTA and eluates were analyzed by Western blot using anti-FPN1 Ab. […] HEK293-Fpn cells were induced with ponasterone for 24 h and then treated with Hep25-His or synthetic hepcidin 25 (s. Hep25) for 3 h. Fluorescence was visualized with a Leica TCS confocal microscope.
Disuccinimidyl suberate (DSS, Pierce, Rockford, Ill.) was added for 20 min at room temperature, followed by quenching with 20 mM TriseHCl pH 7.4 for 20 min. […] Bound proteins were eluted with 1 M imidazole and analyzed by Western blot using anti-FPN1 antibody as described above. […]

[2] = tested on: TfR1; assay: Western blot of TfR1 expression in macrophages; format: cell-based, murine
Procedure: as §1, with “calculated.” for “calculated. Data are expressed as mean of ratios of TfR1 or to actin levels ±S.D. for each experimental condition. *p<0.01.”
Western blotting—1×10^6 cells (RAW 264.7, THP-1 or J774) were plated in […] plates and after 12-20 h cells were treated with hepcidins in serum-free DMEM for 4 h, at 37° C. Afterwards, cells were re-suspended in lysis buffer (1% Triton, 25 mM Hepes pH 7.4, 150 mM NaCl, 10% Glycerol, 5 mM EDTA, 0.5 mM PMSF, protein inhibitors (Roche, Mannheim, Germany) and quantified by Bradford assay (Biorad, Hercules, Calif.). 30 μg of cell lysate was analyzed on 8% SDS-PAGE. Proteins were transferred to Hybond C nitrocellulose membrane (Amersham Biosciences, Piscataway, N.J.) and the membranes were incubated with the primary antibodies rabbit anti-ferroportin (Alpha Diagnostics, San Antonio, Tex.), mouse anti-TfR1 (Zymed, Invitrogen, Carlsbad, Calif.) and mouse anti-β actin (Santa Cruz Biotech, Santa Cruz, Calif.), in a dilution of 1:1000, overnight at 4° C. […] Specific signal was detected with a chemiluminescence assay kit (ECL, Amersham Biosciences, Piscataway, N.J.). The bands were quantified by densitometry using the Quantity-One (Biorad, Hercules, Calif.) software. […]

hepcidin-25His [Hep-25His]
specific binding to FPN1 [1]: binds specifically to FPN1; also recorded: binds specifically to FPNI
specific binding to FPN1 ([1]; listed as recombinant peptide): can specifically bind to its receptor (ferroportin)
reduction of TfR1 in comparison to untreated cells ([2]; RAW 264.7, 10 μM, 4 h at 37° C.): 48%±17.7
decrease in TfR1 expression ([2]; RAW 264.7 macrophages): ~50%
